From PubChem BioAssay AID2060505 (Molecular Pharmacology Branch, DTP, NCI, 2025)
One block for each compound: values may come before it.

Tested on: 633275-114-R-J1-PDC complex spheroids, viability
Assay: Anticancer human tumor 633275-114-R-J1-PDC patient-derived endometrial adenocarcinoma cell line growth inhibition [GQUAD]
Settings: for IC50: curve of first compound; for viability, T/C: stronger effect = lower value
Description: DNA G-quadruplex Stabilizer Agents in Combinations in Complex Spheroids
A high-throughput screen of multi-cell type tumor spheroids was designed to identify active combinations of DNA G-quadruplex stabilizer agents and targeted small molecules. Complex spheroids include a stromal component modeled by human endothelial cells (HUVEC) and fibroblasts modeled by human mesenchymal stem cells (MSCs). The concentration ranges selected for each drug and investigational agent were based upon clinically achievable concentrations if the clinical Cmax of the agent was known.
Compounds. The drugs and investigational agents: pidnarulex (CX-5461; NSC782164), APTO-253 (NSC789042), BRACO-19 (NSC847499), peposertib (NSC802822), ceralasertib (NSC780249), elimusertib (NSC800525), camonsertib (NSC841442), AZD-1390 (NSC803789), olaparib (NSC753686), talazoparib (NSC767125), ART-558 (NSC835418), sotorasib (NSC818433), MRTX-1133 (NSC836407), SN-38 (NSC673596), topotecan (NSC609699), etoposide (NSC141540), doxorubicin (NSC123127), gemcitabine (NSC613327), 5-fluorouracil (NSC19893), paclitaxel (NSC125973), vemurafenib (NSC761431), panobinostat (NSC761190), R-306465 (JNJ-16241199; NSC773264), adavosertib (NSC754352), TP-3654 (NSC805149), carboplatin (NSC241240), KSQ-4279 (NSC840948), and staurosporine (NSC755774) were obtained from the National Cancer Institute (NCI) Developmental Therapeutics Program Chemical Repository (34). The FDA-approved anticancer drug set is available from the NCI Developmental Therapeutics Program. […] The stock solutions were prepared in dimethyl sulfoxide (DMSO, Sigma-Aldrich, St. Louis, MO, cat. D2650) at 800-fold the tested concentration and stored at -70 degrees C prior to their use. All drugs and investigational agents were tested over a range starting from a high concentration at or near the clinical Cmax and decreasing in half-log increments. If the clinical Cmax for an agent had not been determined, the highest concentration tested was 10 microM.
2.3 Cell Culture. All cells were maintained in an incubator at 37 degrees C and 5% CO2 with 95% humidity. The PDC lines were cultured according to standard operating procedures established by the NCI PDMR. All PDCs were thawed and cultured in Matrigel-coated flasks prepared with a working solution of 1X Ham's F-12 nutrient mix, without supplementation (Invitrogen, cat. 11765054), 100 U/mL penicillin-streptomycin (Invitrogen, cat. 15140122), and 2.5% Matrigel (Corning Inc., cat. 354248) for the first three passages. The 857933-349-R-J2-PDC line was cultured in 6C/Colon 1B media, which includes advanced DMEM/F-12 (Thermo Fisher Scientific, cat. 12634028), 10 mM HEPES (Thermo Fisher Scientific, cat. 15630080), 1X GlutaMAX supplement (Thermo Fisher Scientific, cat. 35050061), 0.1 mg/mL primocin (InvivoGen, cat. ant-pm-2), 10% defined fetal bovine serum, heat inactivated (HyClone Laboratories Inc., cat. SH30070.03HI), 50% L-WRN conditioned media (ATCC, cat. CRL-3276), 1.25 mM N-Acetyl-L-cysteine (Sigma-Aldrich, cat. A9165), 10 mM nicotinamide (Sigma-Aldrich, cat. N0636), 1X B-27 supplement (Thermo Fisher Scientific, cat. 17504044), 1X N-2 supplement (Thermo Fisher Scientific, cat. 17502048), 10 microM Y-27632 dihydrochloride (Tocris Bioscience, cat. 1254), and 50 ng/mL human EGF recombinant protein (Thermo Fisher Scientific, cat. PHG0311). The 485176-168-R4-J1-PDC line was cultured in Panc media, which includes all 6C/Colon 1B media components plus 100 ng/mL human FGF-10 (Thermo Fisher Scientific, cat. 100-26), 500 nM SB-431542 (Selleckchem, cat. S1067), and gastrin (Tocris, cat. 3006).
[…]

[1] = second compound 0.0316 µM, first compound 0.0316 µM
[2] = second compound 0.0316 µM, first compound 0.316 µM
[3] = second compound 0.1 µM, first compound 0.0316 µM
[4] = second compound 0.1 µM, first compound 0.316 µM
[5] = second compound 0.316 µM, first compound 0.0316 µM
[6] = second compound 0.316 µM, first compound 0.316 µM
[7] = second compound 1 µM, first compound 0.0316 µM
[8] = second compound 1 µM, first compound 0.316 µM
[9] = second compound 3.16 µM, first compound 0.0316 µM
[10] = second compound 3.16 µM, first compound 0.316 µM
[11] = second compound 10 µM, first compound 0.0316 µM
[12] = second compound 10 µM, first compound 0.316 µM
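Further: spheroids exposed to the agents for seven days.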
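Wherever viability, T/C is given: percent of DMSO vehicle control viability which is 100%.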

IC50 (second compound 0.0316 µM): > 10000 nM
IC50 (second compound 0.1 µM): > 10000 nM
IC50 (second compound 0.316 µM): < 31.6 nM
IC50 (second compound 1 µM): < 31.6 nM
IC50 (second compound 3.16 µM): < 31.6 nM
IC50 (second compound 10 µM): < 31.6 nM
Structure (SMILES): C=CC(=O)N1CCN(c2nc(=O)n(-c3c(C)ccnc3C(C)C)c3nc(-c4c(O)cccc4F)c(F)cc23)C(C)C1 (centres undefined) + Cc1cnc(CNC(=O)c2c(=O)c3ccc(N4CCCN(C)CC4)nc3n3c2sc2ccccc23)cn1
viability, T/C [1]: 67.1%
viability, T/C (second compound 0.0316 µM, first compound 0.1 µM): 62.3%
viability, T/C [2]: 78.3%
viability, T/C (second compound 0.0316 µM, first compound 1 µM): 69%
viability, T/C (second compound 0.0316 µM, first compound 3.16 µM): 65.4%
viability, T/C (second compound 0.0316 µM, first compound 10 µM): 68.1%
viability, T/C [3]: 57.4%
viability, T/C (second compound 0.1 µM, first compound 0.1 µM): 57.8%
viability, T/C [4]: 55.4%
viability, T/C (second compound 0.1 µM, first compound 1 µM): 57%
viability, T/C (second compound 0.1 µM, first compound 3.16 µM): 59.8%
viability, T/C (second compound 0.1 µM, first compound 10 µM): 51.6%
viability, T/C [5]: 46.8%
viability, T/C (second compound 0.316 µM, first compound 0.1 µM): 44.9%
viability, T/C [6]: 47.6%
viability, T/C (second compound 0.316 µM, first compound 1 µM): 53.5%
viability, T/C (second compound 0.316 µM, first compound 3.16 µM): 54.1%
viability, T/C (second compound 0.316 µM, first compound 10 µM): 46.8%
viability, T/C [7]: 41.6%
viability, T/C (second compound 1 µM, first compound 0.1 µM): 48.2%
viability, T/C [8]: 45.7%
viability, T/C (second compound 1 µM, first compound 1 µM): 42.9%
viability, T/C (second compound 1 µM, first compound 3.16 µM): 47.7%
viability, T/C (second compound 1 µM, first compound 10 µM): 41%
viability, T/C [9]: 37.3%
viability, T/C (second compound 3.16 µM, first compound 0.1 µM): 36.5%
viability, T/C [10]: 39.4%
viability, T/C (second compound 3.16 µM, first compound 1 µM): 42.6%
viability, T/C (second compound 3.16 µM, first compound 3.16 µM): 42.4%
viability, T/C (second compound 3.16 µM, first compound 10 µM): 37.6%
viability, T/C [11]: 32.3%
viability, T/C (second compound 10 µM, first compound 0.1 µM): 34.1%
viability, T/C [12]: 34%
viability, T/C (second compound 10 µM, first compound 1 µM): 35.9%
viability, T/C (second compound 10 µM, first compound 3.16 µM): 39.7%
viability, T/C (second compound 10 µM, first compound 10 µM): 30.2%

IC50 (second compound 0.0316 µM): 32.8 nM
IC50 (second compound 0.1 µM): 1.27 nM
IC50 (second compound 0.316 µM): 1.65 nM
IC50 (second compound 1 µM): < 0.999 nM
IC50 (second compound 3.16 µM): < 0.999 nM
IC50 (second compound 10 µM): < 0.999 nM
Structure (SMILES): CC[C@@]1(O)C(=O)OCc2c1cc1n(c2=O)Cc2cc3c(CN(C)C)c(O)ccc3nc2-1 + Cc1cnc(CNC(=O)c2c(=O)c3ccc(N4CCCN(C)CC4)nc3n3c2sc2ccccc23)cn1
viability, T/C (second compound 0.0316 µM, first compound 0.000999 µM): 63.9%
viability, T/C (second compound 0.0316 µM, first compound 0.00316 µM): 62.7%
viability, T/C (second compound 0.0316 µM, first compound 0.00999 µM): 53.8%
viability, T/C [1]: 54.5%
viability, T/C (second compound 0.0316 µM, first compound 0.0999 µM): 38.4%
viability, T/C [2]: 32.8%
viability, T/C (second compound 0.1 µM, first compound 0.000999 µM): 50.7%
viability, T/C (second compound 0.1 µM, first compound 0.00316 µM): 47.6%
viability, T/C (second compound 0.1 µM, first compound 0.00999 µM): 47.5%
viability, T/C [3]: 42.6%
viability, T/C (second compound 0.1 µM, first compound 0.0999 µM): 41%
viability, T/C [4]: 36.5%
viability, T/C (second compound 0.316 µM, first compound 0.000999 µM): 49.7%
viability, T/C (second compound 0.316 µM, first compound 0.00316 µM): 49.1%
viability, T/C (second compound 0.316 µM, first compound 0.00999 µM): 48.5%
viability, T/C [5]: 40.1%
viability, T/C (second compound 0.316 µM, first compound 0.0999 µM): 34.7%
viability, T/C [6]: 33.4%
viability, T/C (second compound 1 µM, first compound 0.000999 µM): 40%
viability, T/C (second compound 1 µM, first compound 0.00316 µM): 40.6%
viability, T/C (second compound 1 µM, first compound 0.00999 µM): 39.1%
viability, T/C [7]: 40.5%
viability, T/C (second compound 1 µM, first compound 0.0999 µM): 39.9%
viability, T/C [8]: 35.2%
viability, T/C (second compound 3.16 µM, first compound 0.000999 µM): 38.4%
viability, T/C (second compound 3.16 µM, first compound 0.00316 µM): 37.9%
viability, T/C (second compound 3.16 µM, first compound 0.00999 µM): 37.7%
viability, T/C [9]: 33.1%
viability, T/C (second compound 3.16 µM, first compound 0.0999 µM): 35.9%
viability, T/C [10]: 29.9%
viability, T/C (second compound 10 µM, first compound 0.000999 µM): 31.7%
viability, T/C (second compound 10 µM, first compound 0.00316 µM): 35.8%
viability, T/C (second compound 10 µM, first compound 0.00999 µM): 29.8%
viability, T/C [11]: 31.9%
viability, T/C (second compound 10 µM, first compound 0.0999 µM): 32.7%
viability, T/C [12]: 28.4%
